Experiment [1] addresses T1, ATP-binding cassette sub-family C member 4 (Homo sapiens, UniProt O15439).
T1 sequence (O15439 whole entry): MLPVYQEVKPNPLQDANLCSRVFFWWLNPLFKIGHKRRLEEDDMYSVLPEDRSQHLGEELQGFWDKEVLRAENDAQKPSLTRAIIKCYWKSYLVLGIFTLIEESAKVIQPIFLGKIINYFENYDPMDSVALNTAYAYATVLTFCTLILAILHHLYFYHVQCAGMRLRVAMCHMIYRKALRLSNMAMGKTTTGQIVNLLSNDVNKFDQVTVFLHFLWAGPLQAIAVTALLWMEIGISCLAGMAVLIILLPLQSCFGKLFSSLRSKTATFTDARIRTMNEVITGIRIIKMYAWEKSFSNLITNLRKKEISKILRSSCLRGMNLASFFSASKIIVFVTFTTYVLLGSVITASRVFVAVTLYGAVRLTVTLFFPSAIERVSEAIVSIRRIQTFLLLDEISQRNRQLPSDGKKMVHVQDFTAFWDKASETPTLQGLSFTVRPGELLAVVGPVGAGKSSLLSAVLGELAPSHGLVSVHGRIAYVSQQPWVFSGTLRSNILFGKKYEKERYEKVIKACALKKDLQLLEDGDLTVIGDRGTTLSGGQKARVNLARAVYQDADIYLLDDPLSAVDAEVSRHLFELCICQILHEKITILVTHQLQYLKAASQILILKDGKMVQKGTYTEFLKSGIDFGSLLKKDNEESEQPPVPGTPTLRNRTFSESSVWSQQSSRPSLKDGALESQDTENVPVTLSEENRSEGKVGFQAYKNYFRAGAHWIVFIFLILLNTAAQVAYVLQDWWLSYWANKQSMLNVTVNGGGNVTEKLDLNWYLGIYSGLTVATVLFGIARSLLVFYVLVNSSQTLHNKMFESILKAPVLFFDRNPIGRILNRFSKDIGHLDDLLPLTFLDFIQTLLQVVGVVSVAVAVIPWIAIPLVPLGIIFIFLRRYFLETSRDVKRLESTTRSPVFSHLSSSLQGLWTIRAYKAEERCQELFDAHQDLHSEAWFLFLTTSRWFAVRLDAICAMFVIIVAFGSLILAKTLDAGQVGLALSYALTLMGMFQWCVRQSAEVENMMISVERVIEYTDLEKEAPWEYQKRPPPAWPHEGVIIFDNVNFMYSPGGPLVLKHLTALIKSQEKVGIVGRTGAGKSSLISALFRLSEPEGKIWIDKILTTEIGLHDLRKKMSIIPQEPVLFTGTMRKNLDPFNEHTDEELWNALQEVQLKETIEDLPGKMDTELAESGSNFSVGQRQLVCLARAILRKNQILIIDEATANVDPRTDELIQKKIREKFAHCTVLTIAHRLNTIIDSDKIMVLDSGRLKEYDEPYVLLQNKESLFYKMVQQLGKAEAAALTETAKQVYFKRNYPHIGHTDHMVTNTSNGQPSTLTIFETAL
Put plainly: Inhibition of human MRP4 overexpressed in Sf9 cell membrane vesicles assessed as uptake of [3H]-estradiol-17beta-D-glucuronide in presence of ATP and GSH measured after 20 mins by membrane vesicle transport assay. The format is ADME, cell-based.

Another experiment concerns the target Bile salt export pump (Homo sapiens, UniProt O95342). Nature of the experiment: Inhibition of human BSEP overexpressed in Sf9 cell membrane vesicles assessed as uptake of [3H]-taurocholate in presence of ATP measured after 15 to 20 mins by membrane vesicle transport assay. The format is ADME, cell-based.
Experiment [2] concerns the target ATP-binding cassette sub-family C member 2 (Homo sapiens, UniProt Q92887). Put plainly: Inhibition of human MRP2 overexpressed in Sf9 cell membrane vesicles assessed as uptake of [3H]-estradiol-17beta-D-glucuronide in presence of ATP and GSH measured after 20 mins by membrane vesicle transport assay.
The target of experiment [3] is ATP-binding cassette sub-family C member 3 (Homo sapiens, UniProt O15438). Put plainly: Inhibition of human MRP3 overexpressed in Sf9 insect cell membrane vesicles assessed as uptake of [3H]-estradiol-17beta-D-glucuronide in presence of ATP and GSH measured after 10 mins by membrane vesicle transport assay. The format is ADME, cell-based.

A word on the IC50: it is the concentration that gives 50% inhibition.

Molecules are shown by their SMILES. Where a name gives a salt, the structure may show the parent alone.

Sequence of ATP-binding cassette sub-family C member 2 (Q92887 whole entry): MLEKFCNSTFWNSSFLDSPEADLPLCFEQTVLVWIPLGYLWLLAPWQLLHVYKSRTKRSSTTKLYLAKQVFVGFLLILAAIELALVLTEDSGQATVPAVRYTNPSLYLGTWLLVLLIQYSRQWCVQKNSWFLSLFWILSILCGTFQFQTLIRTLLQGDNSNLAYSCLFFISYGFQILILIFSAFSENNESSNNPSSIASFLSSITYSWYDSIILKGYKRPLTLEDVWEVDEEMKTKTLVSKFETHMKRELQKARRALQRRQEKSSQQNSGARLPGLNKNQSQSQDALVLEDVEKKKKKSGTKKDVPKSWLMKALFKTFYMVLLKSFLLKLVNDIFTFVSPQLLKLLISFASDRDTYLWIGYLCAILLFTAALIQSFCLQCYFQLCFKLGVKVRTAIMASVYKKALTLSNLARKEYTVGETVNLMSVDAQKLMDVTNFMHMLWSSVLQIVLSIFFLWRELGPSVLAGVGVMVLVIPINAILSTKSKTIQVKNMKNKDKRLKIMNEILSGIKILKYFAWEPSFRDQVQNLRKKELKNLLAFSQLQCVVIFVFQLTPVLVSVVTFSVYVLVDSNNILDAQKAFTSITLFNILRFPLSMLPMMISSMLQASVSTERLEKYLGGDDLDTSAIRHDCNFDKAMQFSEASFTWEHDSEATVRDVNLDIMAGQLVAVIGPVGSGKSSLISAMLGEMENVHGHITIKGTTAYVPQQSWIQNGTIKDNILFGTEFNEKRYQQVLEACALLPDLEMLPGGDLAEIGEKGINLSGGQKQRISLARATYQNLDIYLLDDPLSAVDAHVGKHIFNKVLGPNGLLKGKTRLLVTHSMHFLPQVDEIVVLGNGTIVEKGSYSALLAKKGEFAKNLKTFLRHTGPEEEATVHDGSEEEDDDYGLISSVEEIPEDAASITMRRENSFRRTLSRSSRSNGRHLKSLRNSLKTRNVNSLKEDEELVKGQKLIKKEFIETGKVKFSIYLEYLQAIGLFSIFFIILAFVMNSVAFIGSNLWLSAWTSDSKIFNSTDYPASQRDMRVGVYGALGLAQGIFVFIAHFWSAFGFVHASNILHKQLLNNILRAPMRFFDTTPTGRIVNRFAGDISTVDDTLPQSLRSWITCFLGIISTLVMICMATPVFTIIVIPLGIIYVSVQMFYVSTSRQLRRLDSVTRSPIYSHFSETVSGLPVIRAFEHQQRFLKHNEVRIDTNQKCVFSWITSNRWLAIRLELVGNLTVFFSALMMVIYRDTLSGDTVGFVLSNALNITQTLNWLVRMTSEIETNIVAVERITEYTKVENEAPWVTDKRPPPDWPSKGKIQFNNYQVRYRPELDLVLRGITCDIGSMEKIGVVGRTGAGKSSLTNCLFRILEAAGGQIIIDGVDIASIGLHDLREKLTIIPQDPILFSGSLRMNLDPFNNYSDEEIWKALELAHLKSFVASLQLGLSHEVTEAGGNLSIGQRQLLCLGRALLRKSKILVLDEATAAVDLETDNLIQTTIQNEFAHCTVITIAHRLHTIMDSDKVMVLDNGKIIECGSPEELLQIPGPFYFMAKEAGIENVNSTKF
Sequence of ATP-binding cassette sub-family C member 3 (O15438 whole entry): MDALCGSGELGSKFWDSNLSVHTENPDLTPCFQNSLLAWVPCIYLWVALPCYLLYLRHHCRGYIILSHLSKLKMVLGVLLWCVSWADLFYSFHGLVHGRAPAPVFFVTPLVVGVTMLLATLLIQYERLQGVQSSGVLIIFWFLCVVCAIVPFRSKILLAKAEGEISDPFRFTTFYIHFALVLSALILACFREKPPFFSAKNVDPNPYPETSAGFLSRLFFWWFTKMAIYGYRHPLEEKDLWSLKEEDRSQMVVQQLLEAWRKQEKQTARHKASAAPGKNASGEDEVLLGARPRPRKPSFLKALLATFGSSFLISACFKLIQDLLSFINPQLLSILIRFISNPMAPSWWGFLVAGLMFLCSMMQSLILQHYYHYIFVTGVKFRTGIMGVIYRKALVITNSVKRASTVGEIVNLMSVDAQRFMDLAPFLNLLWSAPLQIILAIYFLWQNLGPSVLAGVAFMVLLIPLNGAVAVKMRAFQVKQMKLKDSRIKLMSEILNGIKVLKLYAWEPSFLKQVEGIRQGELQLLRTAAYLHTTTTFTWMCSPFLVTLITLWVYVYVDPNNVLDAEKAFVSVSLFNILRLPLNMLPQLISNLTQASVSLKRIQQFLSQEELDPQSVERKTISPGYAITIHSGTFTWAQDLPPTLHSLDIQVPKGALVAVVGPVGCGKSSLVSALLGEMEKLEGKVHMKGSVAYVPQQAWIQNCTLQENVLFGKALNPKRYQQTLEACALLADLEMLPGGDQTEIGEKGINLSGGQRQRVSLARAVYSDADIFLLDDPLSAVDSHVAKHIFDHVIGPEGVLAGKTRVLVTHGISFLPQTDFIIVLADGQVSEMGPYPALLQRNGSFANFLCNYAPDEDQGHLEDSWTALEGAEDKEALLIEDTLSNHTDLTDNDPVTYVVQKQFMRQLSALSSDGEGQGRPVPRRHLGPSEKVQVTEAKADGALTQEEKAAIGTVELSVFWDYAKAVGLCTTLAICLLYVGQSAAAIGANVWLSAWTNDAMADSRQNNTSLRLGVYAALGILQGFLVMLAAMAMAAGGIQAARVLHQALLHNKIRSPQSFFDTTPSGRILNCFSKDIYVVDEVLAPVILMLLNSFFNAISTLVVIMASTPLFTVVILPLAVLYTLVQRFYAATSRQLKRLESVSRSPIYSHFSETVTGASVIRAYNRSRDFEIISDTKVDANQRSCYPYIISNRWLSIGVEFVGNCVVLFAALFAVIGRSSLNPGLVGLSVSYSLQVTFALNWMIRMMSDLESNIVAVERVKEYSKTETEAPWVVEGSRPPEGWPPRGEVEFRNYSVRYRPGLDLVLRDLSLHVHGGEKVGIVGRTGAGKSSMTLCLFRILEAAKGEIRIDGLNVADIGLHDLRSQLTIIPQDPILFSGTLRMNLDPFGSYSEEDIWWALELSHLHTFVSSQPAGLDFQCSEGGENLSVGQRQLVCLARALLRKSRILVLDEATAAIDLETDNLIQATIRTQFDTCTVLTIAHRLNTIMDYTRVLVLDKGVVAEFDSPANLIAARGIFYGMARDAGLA
Sequence of Bile salt export pump (O95342 whole entry): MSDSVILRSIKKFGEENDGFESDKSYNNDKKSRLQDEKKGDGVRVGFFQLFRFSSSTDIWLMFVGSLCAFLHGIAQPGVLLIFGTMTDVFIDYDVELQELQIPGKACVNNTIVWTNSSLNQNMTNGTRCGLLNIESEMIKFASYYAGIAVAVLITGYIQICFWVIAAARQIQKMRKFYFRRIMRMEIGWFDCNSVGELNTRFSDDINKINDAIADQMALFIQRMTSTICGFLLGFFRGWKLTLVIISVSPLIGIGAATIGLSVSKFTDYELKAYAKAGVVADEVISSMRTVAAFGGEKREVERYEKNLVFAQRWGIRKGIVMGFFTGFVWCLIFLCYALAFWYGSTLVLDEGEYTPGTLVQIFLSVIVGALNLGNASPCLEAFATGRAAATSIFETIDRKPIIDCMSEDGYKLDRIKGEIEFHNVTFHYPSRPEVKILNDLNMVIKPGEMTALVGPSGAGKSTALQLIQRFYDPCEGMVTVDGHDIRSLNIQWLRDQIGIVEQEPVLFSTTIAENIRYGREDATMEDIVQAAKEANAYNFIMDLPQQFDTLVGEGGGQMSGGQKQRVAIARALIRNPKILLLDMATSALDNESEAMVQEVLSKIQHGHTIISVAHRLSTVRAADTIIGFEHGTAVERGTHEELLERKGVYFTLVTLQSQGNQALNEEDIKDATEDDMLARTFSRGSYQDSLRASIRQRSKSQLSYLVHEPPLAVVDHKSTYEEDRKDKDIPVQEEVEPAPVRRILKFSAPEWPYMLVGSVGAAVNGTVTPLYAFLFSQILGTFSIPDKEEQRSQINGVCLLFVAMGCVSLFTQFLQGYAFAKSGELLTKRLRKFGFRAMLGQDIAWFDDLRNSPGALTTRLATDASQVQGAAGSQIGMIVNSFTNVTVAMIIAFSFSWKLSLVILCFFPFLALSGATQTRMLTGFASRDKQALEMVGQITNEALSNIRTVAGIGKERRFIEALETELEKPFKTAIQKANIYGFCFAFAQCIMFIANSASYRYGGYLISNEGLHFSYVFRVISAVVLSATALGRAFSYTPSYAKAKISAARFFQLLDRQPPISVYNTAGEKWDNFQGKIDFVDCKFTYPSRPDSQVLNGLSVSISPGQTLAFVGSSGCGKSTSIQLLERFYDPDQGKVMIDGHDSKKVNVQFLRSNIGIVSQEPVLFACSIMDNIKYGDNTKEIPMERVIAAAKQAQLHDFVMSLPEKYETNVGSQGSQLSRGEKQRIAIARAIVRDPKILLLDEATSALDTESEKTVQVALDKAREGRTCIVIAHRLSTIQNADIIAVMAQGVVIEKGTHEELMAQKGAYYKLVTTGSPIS

For the molecule `C=C1C[C@@H]2[C@H](CC[C@]3(C)C(=O)CC[C@@H]23)[C@@]2(C)C=CC(=O)C=C12` [EXEMESTANE], the 50% inhibitory concentration (IC50) in experiment [1] was > 133 µM; on Bile salt export pump, 90 µM; in experiment [2], > 133 µM; in experiment [3], > 133 µM.

Turning to `CC(C)(C)NCC(O)COc1cccc2c1CC(O)C(O)C2` (stereo unspecified) [NADOLOL], the half-maximal inhibitory concentration (IC50) (in experiment [1]; at Bile salt export pump; in experiment [2]; in experiment [3]) was > 133 µM throughout.

Consider `NC(=O)c1cnccn1` [PYRAZINAMIDE], for which the IC50 (in experiment [1]; on Bile salt export pump; in experiment [2]; in experiment [3]) was > 133 µM in each case.

As to `Oc1ccc(C2CNCCc3c2cc(O)c(O)c3Cl)cc1` (stereo unspecified) [FENOLDOPAM MESYLATE], the IC50 (in experiment [1]; at Bile salt export pump; in experiment [2]; in experiment [3]) was > 133 µM in each case.

As for `NC[C@H]1O[C@H](O[C@H]2[C@H](O)[C@@H](O[C@H]3O[C@H](CO)[C@@H](O)[C@H](N)[C@H]3O)[C@H](N)C[C@@H]2N)[C@H](N)C[C@@H]1O` [TOBRAMYCIN], the 50% inhibitory concentration (IC50) (in experiment [1]; at Bile salt export pump; in experiment [2]; in experiment [3]) was > 133 µM in each case.

On to `CCOC(=O)[C@H](CCc1ccccc1)N[C@@H](C)C(=O)N1CCC[C@H]1C(=O)O` [ENALAPRIL MALEATE], for which the IC50 (in experiment [1]; at Bile salt export pump; in experiment [2]; in experiment [3]) was > 133 µM each time.

Turning to `CN(C)CCOc1ccc(/C(=C(/CCCl)c2ccccc2)c2ccccc2)cc1` [TOREMIFENE CITRATE], the IC50 in experiment [1] is > 133 µM; on Bile salt export pump it was 115 µM; in experiment [2], > 133 µM; in experiment [3] it was > 133 µM.

For the molecule `CC(C)(C)NCC(O)c1cc(O)cc(O)c1` (stereo unspecified) [TERBUTALINE], the IC50 (in experiment [1]; on Bile salt export pump; in experiment [2]; in experiment [3]) was > 133 µM each time.

With `Cc1ccc(-c2nc3ccc(C)cn3c2CC(=O)N(C)C)cc1`, the IC50 (in experiment [1]; at Bile salt export pump; in experiment [2]; in experiment [3]) was > 133 µM throughout.

Take `Nc1ncn([C@H]2C[C@H](O)[C@@H](CO)O2)c(=O)n1` [DECITABINE]: the IC50 (in experiment [1]; at Bile salt export pump; in experiment [2]; in experiment [3]) was > 133 µM each time.

Take `C[C@H]1CN(C[C@H](Cc2ccccc2)C(=O)NCC(=O)O)CC[C@@]1(C)c1cccc(O)c1` [ALVIMOPAN]: the 50% inhibitory concentration (IC50) (in experiment [1]; on Bile salt export pump; in experiment [2]; in experiment [3]) was > 133 µM in each case.

On to `CC(C)NCC(O)COc1ccc(COCCOC(C)C)cc1` (stereo unspecified) [BISOPROLOL FUMARATE], for which the half-inhibitory concentration (IC50) (in experiment [1]; at Bile salt export pump; in experiment [2]; in experiment [3]) was > 133 µM throughout.

As to `C=CCN1C[C@H](C(=O)N(CCCN(C)C)C(=O)NCC)C[C@@H]2c3cccc4[nH]cc(c34)C[C@H]21` [CABERGOLINE], the half-maximal inhibitory concentration (IC50) (in experiment [1]; on Bile salt export pump; in experiment [2]; in experiment [3]) was > 133 µM each time.

For the molecule `NC(=O)CC[C@@H]1NC(=O)[C@H](Cc2ccccc2)NC(=O)[C@H](Cc2ccc(O)cc2)NC(=O)[C@@H](N)CSSC[C@@H](C(=O)N2CCC[C@H]2C(=O)N[C@@H](CCCN=C(N)N)C(=O)NCC(N)=O)NC(=O)[C@H](CC(N)=O)NC1=O` [VASOPRESSIN], the half-inhibitory concentration (IC50) (in experiment [1]; at Bile salt export pump; in experiment [2]; in experiment [3]) was > 133 µM in each case.

Consider `Nc1nc(=O)[nH]cc1F` [FLUCYTOSINE], for which the 50% inhibitory concentration (IC50) (in experiment [1]; at Bile salt export pump; in experiment [2]; in experiment [3]) was > 133 µM each time.

On to `CCC1(c2ccc(N)cc2)CCC(=O)NC1=O` (stereo unspecified) [AMINOGLUTETHIMIDE], for which the half-inhibitory concentration (IC50) (in experiment [1]; on Bile salt export pump; in experiment [2]; in experiment [3]) was > 133 µM each time.

For `C[C@@H](O)[C@H]1C(=O)N2C(C(=O)O)=C(S[C@@H]3CN[C@H](C(=O)N(C)C)C3)[C@H](C)[C@H]12` [MEROPENEM], the IC50 (in experiment [1]; on Bile salt export pump; in experiment [2]; in experiment [3]) was > 133 µM throughout.

Turning to `C[C@]12CC[C@H](O)CC1=CC[C@@H]1[C@@H]2CC[C@]2(C)C(c3cccnc3)=CC[C@@H]12` [ABIRATERONE], the IC50 (in experiment [1]; on Bile salt export pump; in experiment [2]; in experiment [3]) was > 133 µM throughout.

For the molecule `CC(C)N(CCC(C(N)=O)(c1ccccc1)c1ccccn1)C(C)C` (stereo unspecified) [DISOPYRAMIDE], the IC50 (in experiment [1]; at Bile salt export pump; in experiment [2]; in experiment [3]) was > 133 µM in each case.

For the molecule `O=c1[nH]c(=O)n([C@H]2CCCO2)cc1F`, the half-maximal inhibitory concentration (IC50) (in experiment [1]; at Bile salt export pump; in experiment [2]; in experiment [3]) was > 133 µM each time.

Consider `CN(C)CCCC1(c2ccc(F)cc2)OCc2cc(C#N)ccc21` (stereo unspecified) [CITALOPRAM], for which the concentration for half-maximal inhibition (IC50) (in experiment [1]; at Bile salt export pump; in experiment [2]; in experiment [3]) was > 133 µM in each case.

`CN1C(=O)CC(=O)N(c2ccccc2)c2cc(Cl)ccc21` [CLOBAZAM]: the concentration for half-maximal inhibition (IC50) (in experiment [1]; on Bile salt export pump; in experiment [2]; in experiment [3]) was > 133 µM throughout.

In the case of `S=C=Nc1cccc2ccccc12` [1-NAPHTHYLISOTHIOCYANATE], the half-inhibitory concentration (IC50) was > 133 µM in experiment [1], 69 µM at Bile salt export pump, > 133 µM in experiment [2] and > 133 µM in experiment [3].

Take `COc1ccccc1N1CCN(CCCNc2cc(=O)n(C)c(=O)n2C)CC1`: the IC50 (in experiment [1]; at Bile salt export pump; in experiment [2]; in experiment [3]) was > 133 µM each time.

`Nc1nc(F)nc2c1ncn2[C@@H]1O[C@H](COP(=O)(O)O)[C@@H](O)[C@@H]1O` [FLUDARABINE PHOSPHATE]: the IC50 (in experiment [1]; on Bile salt export pump; in experiment [2]; in experiment [3]) was > 133 µM each time.

With `CC(=O)SCC(Cc1ccccc1)C(=O)NCC(=O)OCc1ccccc1` (stereo unspecified) [RACECADOTRIL], the half-inhibitory concentration (IC50) in experiment [1] is > 133 µM; on Bile salt export pump it was 20.3 µM; in experiment [2] it was > 133 µM; in experiment [3], 99 µM.

As to `CCOC(=O)[C@H](CCc1ccccc1)N[C@@H](C)C(=O)N1[C@H](C(=O)O)C[C@@H]2CCC[C@@H]21`, the IC50 (in experiment [1]; on Bile salt export pump; in experiment [2]; in experiment [3]) was > 133 µM each time.

On to `COc1cc([C@@H]2c3cc4c(cc3[C@@H](O[C@@H]3O[C@@H]5CO[C@@H](C)O[C@H]5[C@H](O)[C@H]3O)[C@H]3COC(=O)[C@H]23)OCO4)cc(OC)c1OP(=O)(O)O` [ETOPOSIDE PHOSPHATE], for which the IC50 (in experiment [1]; on Bile salt export pump; in experiment [2]; in experiment [3]) was > 133 µM in each case.

In the case of `CC(=O)OCC(CCn1cnc2cnc(N)nc21)COC(C)=O` [FAMCICLOVIR], the IC50 (in experiment [1]; on Bile salt export pump; in experiment [2]; in experiment [3]) was > 133 µM in each case.

For the origin of these results see ChEMBL document CHEMBL4028801, “A multifactorial approach to hepatobiliary transporter assessment enables improved therapeutic compound development” (Toxicol Sci, 2013).
